Assays:
hMC4r [1] = molecular target: T1, hMC4r (Homo sapiens, UniProt P32245); assay: cAMP accumulation functional assay in HEK-293 cells expressing hMC4r; format: cell-based; conditions: agonist = 70% or greater intrinsic activity
T1 construct: expressed in transfected cells; host or cells: HEK-293
Protocol: Accumulation of intracellular cAMP was examined as a measure of the ability of the MC4r peptides to elicit a functional response in HEK-293 cells that express MC4r. Confluent HEK-293 cells that express recombinant hMC4r were detached from culture plates by incubation in enzyme-free cell dissociation buffer. Dispersed cells were suspended in Earle's Balanced Salt Solution containing 10 mM HEPES (pH 7.5), 1 mM MgCl2, 1 mM glutamine, 0.5% albumin and 0.3 mM 3-isobutyl-1-methyl-xanthine (IBMX), a phosphodiesterase inhibitor. […] Cells were exposed for 15 minutes at 37° C. to peptides of the present invention dissolved in DMSO (final DMSO concentration of 1%) at a concentration range of 0.05-5000 nM in a total assay volume of 200 μL. […] Data analysis was performed by nonlinear regression analysis with Graph-Pad Prism® software. The maximum efficacies of the test peptides of the present invention were compared to that achieved by the reference melanocortin agonist NDP-α-MSH.

[2] = diet induced obese mice, Peptide No. 154 with GLP-1, Alzet pumps (Example 8); format: in vivo, mouse; conditions: DIO mice, continuous infusion of 30 mg/kg/day; lost weight only for the first two days; ±0.34 SEM
Protocol: Groups 1, 2 and 4 were provided ad libitum with a 45% high fat rodent diet. Animals in Group 3 were pair-fed to Group 2. The amount of food consumed in Group 2 was the amount of food given to Group 3 in the next 24 hour period. For group 3 (pair-fed group), the pump was implanted 1 day later than other groups to account for pair-feeding. On day −2 and day 6, animals from Groups 1, 2, and 4 were fasted overnight and baseline and terminal glucose tolerance tests (GTT) was conducted. GTT and insulin levels in Group 3 were conducted one day later. Body weight and food intake were measured each day. To conduct the GTT, on study day −2 (−1 for Group 3) (baseline test) and day 6 (7 for Group 3) (termination test), 1 g/kg glucose was orally administered. Glucose levels were taken prior to glucose administration and 15, 30, 60, 90 and 120 minutes post-glucose administration.
Data is expressed as percent change at the termination test, ±standard deviation (SD) from the baseline test. This was calculated as: (AUCday 7−AUCday −2)[…] In FIG. 1, diet induced obese mice were administered MC4r 154 (30 mg/kg/day) either with or without 0.1 mg/kg/day GLP-1, with one group pair fed to the MC4r 154 group but administered only GLP-1 (“Pair-Fed to MC4r 154+GLP-1”).
Data is shown as the average of body weight change in grams±standard error of the mean (SEM) from study day 0.

[3] = DIO mice, single daily subcutaneous bolus dose of Peptide No. 154 (Example 10); format: in vivo, mouse; conditions: single daily subcutaneous dose of 3 mg/kg, on day 5, ±0.6 SEM
Protocol: 10. […] By contrast, animals receiving a single daily subcutaneous dose of 3 mg/kg continuously lost weight over 5 days, and reached a maximum weight loss on day 5 of 4.2 g±0.6 SEM compared to baseline (study day 0).

[4] = diet induced obese rats, GLP-1 infusion and Peptide No. 154 twice daily, body weight and feed intake (Example 11); format: in vivo, rat; conditions: DIO rats
Protocol: 11. […] Each treatment group was compared to the vehicle group using t-test, one-way ANOVA or two-way ANOVA followed by Dunnett's multiple comparisons (GraphPad). A p value<0.05 was considered to represent a significant difference.
Individual body weights were measured on study days 1-9. Percent change in body weight is calculating according to this formula: 100*(value-baseline)/baseline, where value is the weight of the animal on study day in question and baseline is the weight of the same animal on study day −1.
On days 1-4, feeds were weighed at 0, and 24 hours after lights off. On days 5-9, feeds were weighed at 0, 2, 6 and 24 hours after lights off.

[5] = diet induced obese Sprague-Dawley rats, GLP-1 infusion and Peptide No. 154 b.i.d., fasted glucose and insulin (Example 9); format: in vivo, rat; conditions: DIO rats, 1.0 mg/kg Peptide No. 154 b.i.d. alone
Protocol: 9. MC4r 154 was evaluated with GLP-1 to determine effect on body weight and feed intake in diet induced obese Sprague-Dawley rats. Rats were acquired at 17 weeks and pre-conditioned for 5 weeks on high fat diet prior to dosing. No sharp increase in weight was noted, likely due to late onset of the high fat diet. At study day −2, baseline GTT and insulin levels were assessed on 16-hour fasted animals. Animals were then permitted a 2-day recovery period, and on study day 0, animals were randomized into treatment groups by body weight and Alzet continuous infusion pumps containing either vehicle or GLP-1 (for dosing at either 10 or 100 μg/kg/day) were implanted. Beginning on study day 1, body weight and feed weights were taken in the mornings. Beginning on study day 4, twice daily (b.i.d.) subcutaneous dosing of saline was initiated for all groups other than the treatment naïve group to acclimate the animals to handling and subcutaneous dosing. […] Animals were fasted for the 16 hours prior to the GTT.
Data is shown as the percent change from study day −2 baseline test±SEM.
FIG. 4 compares the fasted insulin levels at study day −2 and study day 12, with insulin measured after 16 hour fast and prior to GTT testing. Data is shown as ng/mL insulin±SEM.

hMC4r [6] = molecular target: T1, hMC4r; assay: competitive inhibition binding assay with Eu-NDP-α-MSH (time-resolved fluorometry)
Protocol: After incubation for 90 minutes at 37° C., the reaction was stopped by filtration over AcroWell 96-well filter plates (Pall Life Sciences). The filter plates were washed 4 times with 200 μL of ice-cold phosphate-buffered saline. DELFIA Enhancement solution (PerkinElmer Life Sciences) was added to each well. […] Each assay was conducted in duplicate and mean values were utilized. Ki values were determined by curve-fitting with Graph-Pad Prism® software using a one-site fixed-slope competition binding model.

hMC4r [7] = molecular target: T1, hMC4r; assay: competitive inhibition binding assay with [I125]-NDP-α-MSH, membrane homogenates of HEK-293 cells; conditions: averaged values, not marked *: [I125]-NDP-α-MSH; read-out: MC4r Ki
Protocol: Assays were performed in 96 well GF/B Millipore multiscreen filtration plates (MAFB NOB10) pre-coated with 0.5% bovine serum albumin (Fraction V). […] After incubation for 60 minutes at 37° C., the assay mixture was filtered and the membranes washed three times with ice-cold buffer. Filters were dried and counted in a gamma counter for bound radioactivity. […] Maximal specific binding (100%) was defined as the difference in radioactivity (cpm) bound to cell membranes in the absence and presence of 1 μM NDP-α-MSH. […] Each assay was conducted in triplicate and the actual mean values are described, with results less than 0% reported as 0%. Ki values for test peptides of the present invention were determined using Graph-Pad Prism® curve-fitting software.

T1 sequence (P32245 whole entry): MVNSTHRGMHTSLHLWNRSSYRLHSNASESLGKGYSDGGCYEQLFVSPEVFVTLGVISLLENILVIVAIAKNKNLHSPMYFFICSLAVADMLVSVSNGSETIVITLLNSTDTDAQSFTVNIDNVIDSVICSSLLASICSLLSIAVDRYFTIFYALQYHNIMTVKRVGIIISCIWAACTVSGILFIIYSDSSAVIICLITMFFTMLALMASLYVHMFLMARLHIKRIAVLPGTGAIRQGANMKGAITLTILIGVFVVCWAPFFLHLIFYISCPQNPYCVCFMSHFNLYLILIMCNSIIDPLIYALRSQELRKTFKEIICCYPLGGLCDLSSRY

For CC(=O)N[C@@H](CCCNC(=N)N)C(=O)N[C@H]1CC(=O)NCCCC[C@@H](C(N)=O)NC(=O)[C@H](Cc2c[nH]c3ccccc23)NC(=O)[C@H](CCCNC(=N)N)NC(=O)[C@@H](Cc2ccccc2)NC(=O)[C@H](Cc2c[nH]cn2)NC1=O [Peptide No. 1, Ac-Arg-cyclo(Asp-His-D-Phe-Arg-Trp-Lys)-NH2], the “functional status at MC4r (agonist / partial agonist)” value (hMC4r [1]) was “agonist”.

In the case of CC(=O)N[C@@H](CCCNC(=N)N)C(=O)N[C@H]1CC(=O)NCCCC[C@@H](C(N)=O)NC(=O)[C@H](Cc2c[nH]c3ccccc23)NC(=O)[C@H](CCCNC(=N)N)NC(=O)[C@@H](Cc2ccccc2)NC(=O)[C@H](C(C)C)NC1=O [Peptide No. 16, Ac-Arg-cyclo(Asp-Val-D-Phe-Arg-Trp-Lys)-NH2], the “functional status at MC4r (agonist / partial agonist)” value (hMC4r [1]) is reported as “partial agonist”.

For CC(=O)N[C@@H](CCCNC(=N)N)C(=O)N[C@H]1CC(=O)NCCCC[C@@H](C(N)=O)NC(=O)[C@H](Cc2c[nH]c3ccccc23)NC(=O)[C@H](CCCNC(=N)N)NC(=O)[C@@H](Cc2ccccc2)NC(=O)[C@H](CCC(N)=O)NC1=O [Peptide No. 32, Ac-Arg-cyclo(Asp-Gln-D-Phe-Arg-Trp-Lys)-NH2], the “functional status at MC4r (agonist / partial agonist)” value (hMC4r [1]) was “agonist”.

In the case of CC(=O)N[C@@H](CCCNC(=N)N)C(=O)N[C@H]1CCCNC(=O)CC[C@@H](C(N)=O)NC(=O)[C@H](Cc2c[nH]c3ccccc23)NC(=O)[C@H](CCCNC(=N)N)NC(=O)[C@@H](Cc2ccccc2)NC(=O)[C@H](CC(N)=O)NC1=O [Peptide No. 154, Ac-Arg-cyclo(Orn-Asn-D-Phe-Arg-Trp-Glu)-NH2], the “maximum weight loss compared to baseline (study day 0)” value [2] is reported as 1.76 g, the “maximum weight loss compared to baseline (study day 0)” value [3] is reported as 4.2 g and the “appetite on day 9” value [4] is reported as “recovered on day 9”. The “food intake after start of Peptide No. 154 dosing” value ([4]; Peptide No. 154 s.c. from day 5) was “decreased starting on day 5”, the “feed intake at 2 and 6 hours post lights off compared with vehicle” value ([4]; days 5-9) was “significant decreased feed intakes” and the “body weight compared with vehicle” value ([4]; subcutaneous dosing twice daily, days 5-10) was “decreased animal's body weight significantly”. The “decrease in fasted plasma glucose, day -2 to day 12” value [5] was “most pronounced decrease”.

CC(=O)NCC[C@@H]1NC(=O)[C@@H](NC(=O)[C@H](CCCNC(=N)N)NC(C)=O)CC(=O)NCCCC[C@@H](C(N)=O)NC(=O)[C@H](Cc2c[nH]c3ccccc23)NC(=O)[C@H](CCCNC(=N)N)NC(=O)[C@@H](Cc2ccccc2)NC1=O [compound 114, Ac-Arg-cyclo(Asp-Dab(Acetyl)-D-Phe-Arg-Trp-Lys)-NH2] gave a Ki (hMC4r [6]) of 88 nM.

In the case of CC(=O)N[C@@H](CCCNC(=N)N)C(=O)N[C@H]1CCCC(=O)NCC[C@@H](C(N)=O)NC(=O)[C@H](Cc2c[nH]c3ccccc23)NC(=O)[C@H](CCCNC(=N)N)NC(=O)[C@@H](Cc2ccccc2)NC(=O)[C@H](Cc2c[nH]cn2)NC1=O [compound 126, Ac-Arg-cyclo(hGlu-His-D-Phe-Arg-Trp-Dab)-NH2], the “functional status at MC4r (agonist / partial agonist)” value (hMC4r [1]) is reported as “agonist”.

In the case of CC(=O)N[C@@H](CCCNC(=N)N)C(=O)N[C@H]1CCCC(=O)NCC[C@@H](C(N)=O)NC(=O)[C@H](Cc2c[nH]c3ccccc23)NC(=O)[C@H](CCCNC(=N)N)NC(=O)[C@@H](Cc2ccccc2)NC(=O)[C@H](CCN)NC1=O [compound 127, Ac-Arg-cyclo(hGlu-Dab-D-Phe-Arg-Trp-Dab)-NH2], the “functional status at MC4r (agonist / partial agonist)” value (hMC4r [1]) is reported as “agonist”.

In the case of CC(=O)N[C@@H](CCCNC(=N)N)C(=O)N[C@H]1CCNC(=O)CCC[C@@H](C(N)=O)NC(=O)[C@H](Cc2c[nH]c3ccccc23)NC(=O)[C@H](CCCNC(=N)N)NC(=O)[C@@H](Cc2ccccc2)NC(=O)[C@H](Cc2c[nH]cn2)NC1=O [compound 128, Ac-Arg-cyclo(Dab-His-D-Phe-Arg-Trp-hGlu)-NH2], the “functional status at MC4r (agonist / partial agonist)” value (hMC4r [1]) is reported as “agonist”.

For CC(=O)N[C@@H](CCCNC(=N)N)C(=O)N[C@H]1CCNC(=O)CCC[C@@H](C(N)=O)NC(=O)[C@H](Cc2c[nH]c3ccccc23)NC(=O)[C@H](CCCNC(=N)N)NC(=O)[C@@H](Cc2ccccc2)NC(=O)[C@H](CCN)NC1=O [compound 129, Ac-Arg-cyclo(Dab-Dab-D-Phe-Arg-Trp-hGlu)-NH2], the “functional status at MC4r (agonist / partial agonist)” value (hMC4r [1]) was “agonist”.

CC(=O)N[C@@H](CCCNC(=N)N)C(=O)N[C@H]1CC(=O)NCCCC[C@@H](C(N)=O)NC(=O)[C@H](Cc2c[nH]c3ccccc23)NC(=O)[C@H](CCCNC(=N)N)NC(=O)[C@@H](Cc2ccccc2)NC(=O)[C@H](CCN)NC1=O [compound 163, Ac-Arg-cyclo(Asp-Dab-D-Phe-Arg-Trp-Lys)-NH2] gave a Ki (hMC4r [7]) of 4 nM.

For CC(=O)N[C@@H](CCCNC(=N)N)C(=O)N[C@H]1CC(=O)NCCCC[C@@H](C(=O)O)NC(=O)[C@H](Cc2c[nH]c3ccccc23)NC(=O)[C@H](CCCNC(=N)N)NC(=O)[C@@H](Cc2ccccc2)NC(=O)[C@H](CCN)NC1=O [compound 164, Ac-Arg-cyclo(Asp-Dab-D-Phe-Arg-Trp-Lys)-OH], the Ki (hMC4r [7]) was 57 nM.

Source: US10660939B2, “Therapies for obesity, diabetes and related indications” (Palatin Technologies, Inc., priority 2015, dated 2020)
